Measurements published in US9624211B2, “Anti-cancer compounds” (Board of Regents, The University of Texas System, priority 2013, dated 2017).
Where two headings read alike, the source gives them in different places.

Columns and labels:
[1] = tested on: p27 and p21 protein expression; experiment: Immunoblotting of SCF substrates in prostate cancer cells; assay type: cell-based
Text: Cells were lysed with RIPA buffer in the presence of protease inhibitor cocktail (Roche). The following antibodies were used for immunoblotting analysis: anti-Skp2 (Invitrogen), anti-Xpress (Invitrogen), anti-p27 (BD transduction laboratories), anti-p21 (Santa Cruz), anti-β-actin (Sigma), anti-α-tubulin (Sigma), anti-phospho-Akt (Thr308) (Cell Signaling), anti-phospho-Akt (Ser473) (Cell Signaling), and anti-HA (Convance). For immunohistochemistry, tissues were fixed in 10% formalin and embedded in paraffin in accordance with standard procedures. Sections were stained with anti-Skp2 (Invitrogen), anti-p27 (Epitomics), anti-phosphoAkt (SerS473) (Cell signaling), anti-Glut1 (Abcam), and anti-Ki67 (Abcam). TUNEL staining was performed by using in situ cell death detection kit-POD (Roche).

[2] = tested on: prostate CSCs; experiment: ALDH+ cancer stem cell population by FACS; assay type: cell-based
Procedure: FIGS. 6A-G. Skp2 inactivation diminishes cancer stem cell properties and heightens cancer cell sensitivity to chemotherapy. (FIG. 6A) Populations of ALDH^+ cells were determined by FACS analysis in PC3 cells treated with vehicle or compound #25. (FIG. 6B) Populations of ALDH^+ cells were determined by FACS analysis in PC3 cells with control or Skp2 knockdown. (FIG. 6C) Populations of ALDH^+ cells were determined by FACS analysis in PC3 cells with control or Skp2 knockdown treated with vehicle or compound #25. (FIG. 6D) Populations of ALDH^+ cells were determined by FACS analysis in PC3 cells with DMSO or LY294002. (FIG. 6E) Populations of ALDH^+ cells were determined by FACS analysis in LNCaP cells treated with DMSO, LY294002 or compound #25. (FIGS. 6F-G) Prostate sphere-formation assay in PC3 (FIG. 6F) and LNCaP (FIG. 6G) cells treated with DMSO, LY294002 or compound #25. Results are presented as mean values±S.D. ** indicates p<0.01.

[3] = tested on: p53-deficient prostate cancer cells; experiment: Cell senescence assay (SA-b-gal); assay type: cell-based
Procedure: (§1) For Skp2 inhibitor administration, 5-10×10^3 of cells with were seeded in 12 wells in triplicate, 24 h later, treated with compound #25 (refreshed every two days). Four days later, cells were harvested, stained with trypan blue, and viable cells were counted directly under the microscope using hemocytometer. For doxorubicin treatment, 8×10^3 of PC3 cells with were seeded in 12 wells in triplicate, 24 h later, treated with various dose of compound #25 in the presence or absence of 10 nM doxorubicin or 25 ng/ml cyclophosphamide for four and three days, respectively (refreshed every two days). After treatment, cells were harvested, stained with trypan blue, and viable cells were counted directly under the microscope using hemocytometer. Cellular senescence was determined by assessing SA-b-gal activity using senescence detection kit according to manufacturers' standard procedures (Calbiochem).

[4] = tested on: ERK activation; experiment: ERK activation after EGF, immunoblotting; assay type: cell-based
[5] = tested on: normal prostate epithelial PNT1A cells; experiment: Cell survival assay, PNT1A; assay type: cell-based
Procedure: as §1

[6] = tested on: PC3 xenograft tumors; experiment: PC3 tumor xenograft in nude mice; assay type: in vivo
Procedure: Nude mice bearing PC3 or A549 xenograft tumors (around 100 mm^3) were administrated with vehicle or 80 mg/kg compound #25 on a daily basis. Tumor size was measured weekly with a caliper, and tumor volume was determined with the standard formula: L×W2×0.52, where L is the longest diameter and W the shortest diameter.

[7] = tested on: PC-3 cells; experiment: Cell survival assay, PC-3; assay type: cell-based, human
Procedure: as §1

[8] = tested on: prostate cancer cells; experiment: Cell survival assay in combination with Dox or CPA; assay type: cell-based; conditions: combination with doxorubicin or cyclophosphamide
Procedure: as §1

[9] = tested on: LNCaP cells; experiment: Cell survival assay, LNCaP; assay type: cell-based, human
Procedure: as §1

[10] = Pharmacokinetic analysis, plasma and tumor distribution; assay type: in vivo, nude mice
Procedure: FIGS. 14A-C. Skp2 inhibitor restricts cancer cell proliferation and triggers apoptosis in prostate tumor xenografts. The quantification results (FIG. 14A) and representative images (FIG. 14B) of histological analysis of Ki-67, TUNEL, Skp2 and HE staining in PC3-driven tumor xenografts. “Low” indicates tumor xenografts treated with 40 mg/kg, while “high” indicates the xenografts treated with 80 mg/kg of compound #25. Scale bar indicates 100 μm. (FIG. 14C) Pharmacokinetic analysis of compound #25. Plasma and tumor distribution following IP injection of compound #25 to nude mice bearing PC3-driven tumor xenograft are analyzed. Three mice were evaluated at each time point. Results are represented as mean values±S.D.

[11] = tested on: Skp2 Trp97Ala and Asp98Ala mutants; experiment: In vitro binding of compound to GST-Skp2 mutants by LC-MS/MS; conditions: preexisting Skp2-Skp1 complex
Procedure: To corroborate this notion, the in vitro binding assay was performed to compare the binding affinity of compound #25 to WT Skp2 and Skp2 mutants (Trp97Ala and Asp98Ala) using LC-MS/MS analysis. Of note, since the nature of recombinant Skp2 protein was unstable in the absence of Skp1 (Li et al., 2005), the GST-Skp2 WT, GST-Skp2 Trp97Ala and GST-Skp2Asp98Ala mutants subjected to LC-MS/MS analysis were co-expressed, purified and preformed complex with Skp1 (FIG. 10A).

time of maximum levels in blood ([10]; IP administration): 1 h
share of compound maintained in blood ([10]; for 6 h): up to 70%
concentration at 24 h ([10]; nude, mouse, blood, intraperitoneal, 24 h after administration, read-out: terminal concentration in blood): 126 ± 48 ng/mL
Cmax ([10]; nude, mouse, blood, IP administration): 1430 ± 1180 ng/mL
concentration at 24 h ([10]; nude, mouse, tumor, intraperitoneal, 24 h after initial administration, read-out: concentration remaining in tumor tissues): ~1160 ng/mL
concentration at 1 h ([10]; nude, mouse, tumor, intraperitoneal, within 1 h, read-out: concentration in tumors): 4790 ± 1970 ng/g
binding to Trp97Ala and Asp98Ala mutants [11]: failed to interact
SMILES: CCc1cc2c(=O)c(-c3nc4ccccc4s3)coc2c(CN2CCCCC2)c1O [compound #25, 3-(1,3-benzothiazol-2-yl)-6-ethyl-7-hydroxy-8-(1-piperidinylmethyl)-4H-chromen-4-one]
stabilization/induction of SCF substrates ([1]; Skp2, Fbw7 and β-TrCP substrates, FIGS. 3E and 11A): selectively stabilized Skp2 substrates
endogenous p27 and p21 protein expression ([1]; prostate cancer cells): induced endogenous p27 and p21 protein expression
population of prostate CSCs [2]: reduce the population of prostate CSCs in a dose dependent manner
population of prostate CSCs upon Skp2 silencing ([2]; Skp2 silencing): failed to do so
cellular senescence [3]: triggered cellular senescence
ERK activation [4]: no noticeable impact
cell viability [5]: only slightly affected
prostate tumor growth in vivo ([6]; IP injection): potent effect
p27, p21, apoptosis, Akt activation and Glut1 in prostate tumor tissues ([6]; histological analysis): induced expression of p27 and p21, apoptosis, and suppressed Akt activation and Glut1 expression
cell viability ([7]; PC-3): potent effects on cell viability
viability upon Skp2 silencing ([7]; Skp2-knockdown prostate cancer cells): inhibitory effect is compromised
viability of control-knockdown cells ([7]; control-knockdown prostate cancer cells): potent inhibitory effect
cell viability with ectopic Skp2 Trp97Ala or Asp98Ala ([7]; ectopic expression of Skp2 mutants): attenuated the inhibitory effect
sensitization to Dox and CPA [8]: increased the efficacy of Dox and CPA
cell viability [9]: potent effects on cell viability
